Laboratory results published in publication PMC7909954 (eLife, 2021).
Values joined by “and” are separate entries in the source; they are usually repeats but may differ in a detail not shown here. Equal entries are not always repeated. Where two headings read alike, the source gives them in different places.

Key:
[1] = molecular target: T1, KOR (Homo sapiens, UniProt P41145); assay: cell-based; conditions: for Emax: HTLA, read-out: Emax% arrestin recruitment (Tango) hKOR
[2] = molecular target: T2, MOR (Homo sapiens, UniProt P35372)
[3] = molecular target: T1, KOR; assay: cell-based; conditions: for Emax: HEK-293T, read-out: Emax% cAMP inhibition hKOR
[4] = molecular target: T2, MOR; assay: cell-based; conditions: for Emax: HEK-293T, read-out: Emax% cAMP inhibition hMOR
[5] = molecular target: T1, KOR; conditions: for Log RA cAMP hKOR / LogRA Tango hKOR: transduction coefficient log(T/KA); for ΔlogRA Tango hKOR / ΔlogRA cAMP hKOR / Bias factor (cAMP-Tango) hKOR: vs U50,488h; for Bias factor (cAMP-Tango) hKOR: >1 G protein bias, <1 arrestin bias
[6] = molecular target: T3, mMOR (Mus musculus, UniProt P42866); assay: biochemical
[7] = molecular target: T4, DOR (Homo sapiens, UniProt P41143); assay: cell-based; conditions: for EC50: Tango; for Emax: HTLA, read-out: Emax% arrestin recruitment hDOR
[8] = molecular target: T3, mMOR; assay: biochemical; conditions: for EC50: EC50 mMOR [35S]GTPγS, ± SEM; for Emax: read-out: Emax mMOR [35S]GTPγS
[9] = molecular target: T5, mDOR (Mus musculus, UniProt P32300); assay: cell-based; conditions: for EC50: EC50 G protein activation (BRET) mDOR; for Emax: HEK-293T, read-out: Emax% G protein activation (BRET) mDOR
[10] = molecular target: T6, mKOR (Mus musculus, UniProt P33534); assay: biochemical; conditions: for EC50: EC50 mKOR [35S]GTPγS, ± SEM; for Emax: read-out: Emax mKOR [35S]GTPγS
[11] = molecular target: T2, MOR; assay: cell-based; conditions: for Emax: HTLA, read-out: Emax% arrestin recruitment (Tango) hMOR
[12] = molecular target: T4, DOR; assay: cell-based; conditions: for Emax: HEK-293T, read-out: Emax% cAMP inhibition hDOR
[13] = molecular target: T2, MOR; remark: listed apart in the source
[14] = molecular target: T7, rKOR (Rattus norvegicus, UniProt P34975); assay: cell-based; conditions: for Emax: HEK-293T, read-out: Emax% G protein activation (BRET) rKOR
[15] = molecular target: T3, mMOR; assay: cell-based; conditions: for Emax: HEK-293T, read-out: Emax% G protein activation (BRET) mMOR
[16] = molecular target: T5, mDOR; assay: biochemical; conditions: for Emax: read-out: Emax mDOR [35S]GTPγS
[17] = molecular target: T6, mKOR; assay: biochemical
[18] = molecular target: T7, rKOR; assay: cell-based; conditions: HEK-293T, read-out: Emax% arrestin recruitment (BRET) rKOR
[19] = molecular target: T5, mDOR; assay: cell-based; conditions: for Emax: HEK-293T, read-out: Emax% arrestin recruitment (BRET) mDOR
[20] = molecular target: T7, rKOR; conditions: for ΔlogRA BRET-G rKOR / ΔlogRA BRET-arr rKOR: vs U50,488h
[21] = molecular target: T3, mMOR; assay: cell-based; parameters: expressed in transfected cells; host or cells: HEK-293T
[22] = EC50 arrestin recruitment (Tango) hKOR
[23] = EC50 G protein activation (BRET) mMOR
[24] = EC50 arrestin recruitment (BRET) mDOR

T2 sequence (P35372 whole entry): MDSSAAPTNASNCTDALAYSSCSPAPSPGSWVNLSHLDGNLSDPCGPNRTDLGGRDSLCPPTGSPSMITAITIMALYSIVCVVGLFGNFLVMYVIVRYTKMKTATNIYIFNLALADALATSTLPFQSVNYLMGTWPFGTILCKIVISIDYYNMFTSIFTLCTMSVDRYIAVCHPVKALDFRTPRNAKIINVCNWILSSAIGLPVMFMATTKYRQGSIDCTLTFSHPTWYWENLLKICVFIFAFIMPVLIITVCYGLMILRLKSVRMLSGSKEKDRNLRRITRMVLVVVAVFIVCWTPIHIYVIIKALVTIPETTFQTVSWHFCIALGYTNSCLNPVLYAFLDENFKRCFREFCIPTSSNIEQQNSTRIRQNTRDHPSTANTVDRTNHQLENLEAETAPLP
T5 sequence (P32300 whole entry): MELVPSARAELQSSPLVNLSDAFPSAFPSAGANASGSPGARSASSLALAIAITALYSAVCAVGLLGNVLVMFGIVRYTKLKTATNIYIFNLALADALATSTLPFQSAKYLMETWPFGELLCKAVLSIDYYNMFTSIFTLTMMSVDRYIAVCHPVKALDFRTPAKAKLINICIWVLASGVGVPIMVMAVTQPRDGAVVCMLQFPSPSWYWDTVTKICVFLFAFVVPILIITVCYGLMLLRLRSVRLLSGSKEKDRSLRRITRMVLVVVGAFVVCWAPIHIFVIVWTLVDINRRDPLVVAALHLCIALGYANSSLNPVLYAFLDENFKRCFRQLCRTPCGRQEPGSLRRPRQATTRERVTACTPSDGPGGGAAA
T4 sequence (P41143 whole entry): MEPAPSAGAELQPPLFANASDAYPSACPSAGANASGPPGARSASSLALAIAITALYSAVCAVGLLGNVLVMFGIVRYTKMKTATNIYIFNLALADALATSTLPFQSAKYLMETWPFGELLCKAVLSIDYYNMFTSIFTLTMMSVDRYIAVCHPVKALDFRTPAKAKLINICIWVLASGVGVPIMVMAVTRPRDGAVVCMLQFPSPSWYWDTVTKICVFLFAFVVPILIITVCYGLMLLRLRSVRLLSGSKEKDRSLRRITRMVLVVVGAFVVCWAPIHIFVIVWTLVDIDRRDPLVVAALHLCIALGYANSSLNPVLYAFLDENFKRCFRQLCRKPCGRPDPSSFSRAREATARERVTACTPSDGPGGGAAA
T3 sequence (P42866 whole entry): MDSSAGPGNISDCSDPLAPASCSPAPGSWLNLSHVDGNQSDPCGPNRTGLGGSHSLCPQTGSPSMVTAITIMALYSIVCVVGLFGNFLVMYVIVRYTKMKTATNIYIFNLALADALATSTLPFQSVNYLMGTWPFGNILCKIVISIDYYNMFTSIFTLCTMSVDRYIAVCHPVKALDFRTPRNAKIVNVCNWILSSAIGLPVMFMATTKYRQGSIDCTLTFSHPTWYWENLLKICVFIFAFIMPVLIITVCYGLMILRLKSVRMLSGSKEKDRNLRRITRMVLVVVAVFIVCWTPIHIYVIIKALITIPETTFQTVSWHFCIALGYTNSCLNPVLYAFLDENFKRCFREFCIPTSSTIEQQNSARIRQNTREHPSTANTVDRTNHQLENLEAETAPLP
T1 sequence (P41145 whole entry): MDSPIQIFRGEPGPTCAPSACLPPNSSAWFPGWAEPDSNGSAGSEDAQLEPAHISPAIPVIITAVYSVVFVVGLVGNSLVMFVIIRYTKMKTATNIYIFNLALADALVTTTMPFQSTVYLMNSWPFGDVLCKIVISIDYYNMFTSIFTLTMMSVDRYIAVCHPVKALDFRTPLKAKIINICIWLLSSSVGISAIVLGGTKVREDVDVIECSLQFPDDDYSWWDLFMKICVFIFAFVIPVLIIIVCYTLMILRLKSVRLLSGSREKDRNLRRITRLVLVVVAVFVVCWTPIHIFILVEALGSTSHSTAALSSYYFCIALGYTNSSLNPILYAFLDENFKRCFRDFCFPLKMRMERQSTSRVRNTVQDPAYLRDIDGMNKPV
T7 sequence (P34975 whole entry): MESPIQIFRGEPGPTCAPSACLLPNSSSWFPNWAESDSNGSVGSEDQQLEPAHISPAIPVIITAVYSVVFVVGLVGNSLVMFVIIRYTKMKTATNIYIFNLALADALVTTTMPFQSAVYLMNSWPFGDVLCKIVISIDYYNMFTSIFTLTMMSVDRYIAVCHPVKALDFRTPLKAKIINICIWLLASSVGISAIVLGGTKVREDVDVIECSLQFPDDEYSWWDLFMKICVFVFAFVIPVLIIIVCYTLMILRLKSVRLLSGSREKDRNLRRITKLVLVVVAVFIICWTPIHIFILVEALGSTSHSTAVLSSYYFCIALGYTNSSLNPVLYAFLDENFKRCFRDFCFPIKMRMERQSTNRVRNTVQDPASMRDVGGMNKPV
T6 sequence (P33534 whole entry): as the sequence (P34975 whole entry) above, with E11D, A17S, P51S, V308A counted along it

## NCc1ccc(C(=O)N[C@@H]2CC[C@H]3[C@H]4Cc5ccc(O)c6c5[C@@]3(CCN4CC3CC3)[C@H]2O6)cc1 [MP1209, 4-(Aminomethyl)-N-((4R,4aR,7R,7aR,12bS)−3-(cyclopropylmethyl)−9-hydroxy-2,3,4,4a,5,6,7,7a-octahydro-1H-4,12-methano[1]benzofuro[3,2-e]isoquinolin-7-yl)benzamide]
[1]
  Emax: 67 ± 3%
[1]; pEC50 arrestin recruitment (Tango) hKOR, ± SEM
  EC50: 0.372 nM
[2]
  arrestin recruitment at hMOR (in words): null arrestin recruitment
[3]; EC50 cAMP inhibition hKOR
  EC50: 24 pM
[3]
  Emax: 100 ± 1.23%
[4]
  Emax: 98.5 ± 0.96%
[4]; pEC50 cAMP inhibition hMOR
  EC50: 0.245 nM
[5]
  ΔΔlog RA (cAMP-Tango) hKOR: -0.238±0.32
  Log RA cAMP hKOR: 10.55±0.06
  LogRA Tango hKOR: 8.735±0.220
  ΔlogRA Tango hKOR: 0.368±0.31
  ΔlogRA cAMP hKOR: 0.13±0.084

## CO[C@@]12CC[C@@H](NC(=O)c3cccc(I)c3)C3Oc4c(O)ccc5c4[C@@]31CCN(CC1CC1)C2C5 (stereo partly drawn) [MP1305, N-((4aS,7R,12bS)−3-(Cyclopropylmethyl)−9-hydroxy-4a-methoxy-2,3,4,4a,5,6,7,7a-octahydro-1H-4,12-methanobenzofuro[3,2-e]isoquinolin-7-yl)−3-iodobenzamide]
[6]
  Ki: 0.25 ± 0.02 nM
[7]; EC50 arrestin recruitment hDOR
  EC50: 228 nM
[7]
  Emax: 89 ± 2.8%
[1]; [22]
  EC50: 25.7 nM
[1]
  Emax: 75 ± 1%
[8]
  EC50: 0.7 ± 0.1 nM
  Emax: 81.2 ± 16%
[9]
  EC50: 40.4 nM
  Emax: 105 ± 5.9%
[10]
  EC50: 7.4 ± 1.8 nM
  Emax: 42.2 ± 5.3%
[11]
  EC50: 16.4 nM
  Emax: 21 ± 3%
[12]; EC50 cAMP inhibition hDOR
  EC50: 74.2 nM
[12]
  Emax: 71 ± 2.4%
[13]
  Bias factor (cAMP-Tango) hMOR: 11
  Log RA cAMP hMOR: 9.79±0.053
  LogRA Tango hMOR: 6.89±0.048
  ΔlogRA Tango hMOR: 0.109±0.049
  ΔlogRA cAMP hMOR: 1.17±0.076
  ΔΔlog RA (cAMP-Tango) hMOR: 1.059±0.090
[14]
  EC50: 5.04 nM
  Emax: 35 ± 3%
[3]; EC50 cAMP inhibition hKOR
  EC50: 720 pM
[3]
  Emax: 102 ± 1.2%
[4]; EC50 cAMP inhibition hMOR
  EC50: 0.12 nM
[4]
  Emax: 69 ± 1.8%
[15]; [23]
  EC50: 0.74 nM
[15]
  Emax: 72 ± 2%
[5]
  ΔΔlog RA (cAMP-Tango) hKOR: 0.55±0.04
  Bias factor (cAMP-Tango) hKOR: 4
  Log RA cAMP hKOR: 9.22±0.012
  LogRA Tango hKOR: 7.17±0.025
  ΔlogRA Tango hKOR: -1.341±0.036
  ΔlogRA cAMP hKOR: -0.79±0.017
[16]
  Emax: 22 ± 0.9%
[17]
  Ki: 2.5 ± 0.3 nM

## O=C(N[C@@H]1CC[C@@]2(O)C3Cc4ccc(O)cc4[C@@]2(CCN3CC2CC2)C1)c1cccc(I)c1 [MP1601, N-((4bR,6R,8aS)−11-(Cyclopropylmethyl)−3,8a-dihydroxy-6,7,8,8a,9,10-hexahydro-5H-9,4b-(epiminoethano)phenanthren-6-yl)−3-iodobenzamide]
[6]
  Ki: 0.2 ± 0.01 nM
[7]; EC50 arrestin recruitment hDOR
  EC50: 86.7 nM
[7]
  Emax: 203 ± 5.4%
[1]; [22]
  EC50: 3.23 nM
[1]
  Emax: 107 ± 3%
[8]
  EC50: 0.5 ± 0.2 nM
  Emax: 45 ± 4.6%
[9]
  EC50: 6.27 nM
  Emax: 105 ± 6.7%
[10]
  EC50: 3 ± 0.7 nM
  Emax: 72 ± 4.5%
[11]
  EC50: 4.02 nM
  Emax: 27 ± 2%
[12]; EC50 cAMP inhibition hDOR
  EC50: 2.76 nM
[12]
  Emax: 106 ± 2.3%
[18]
  Emax: 37 ± 3%
[13]
  Bias factor (cAMP-Tango) hMOR: 4
  Log RA cAMP hMOR: 9.84±0.002
  LogRA Tango hMOR: 7.65±0.035
  ΔlogRA Tango hMOR: 0.87±0.036
  ΔlogRA cAMP hMOR: 1.44±0.002
  ΔΔlog RA (cAMP-Tango) hMOR: 0.57±0.036
[14]
  Emax: 75 ± 3%
[3]
  Emax: 109 ± 1%
[3]; pEC50 cAMP inhibition hKOR, ± SEM
  EC50: 174 pM
[19]; [24]
  EC50: 9 nM
[19]
  Emax: 16 ± 1.4%
[4]; EC50 cAMP inhibition hMOR
  EC50: 0.1 nM
[4]
  Emax: 69 ± 1%
[4]; pEC50 cAMP inhibition hMOR
  EC50: 0.102 nM
[15]; [23]
  EC50: 2.2 nM
[15]
  Emax: 49 ± 3%
[15]; pEC50 G protein activation (BRET) mMOR
  EC50: 2.51 nM
[20]
  Log RA BRET-G rKOR: 7.917±0.018
  LogRA BRET-Arr rKOR: 7.113±0.052
  ΔΔlog RA (BRETG-BRETArr) rKOR: -0.006±0.057
  ΔlogRA BRET-G rKOR: 0.324±0.052
  ΔlogRA BRET-arr rKOR: 0.33±0.052
[5]
  ΔΔlog RA (cAMP-Tango) hKOR: -0.282±0.023
  Bias factor (cAMP-Tango) hKOR: 0.5 and 0.52
  Log RA cAMP hKOR: 9.85±0.014
  LogRA Tango hKOR: 8.51±0.009
  ΔlogRA Tango hKOR: 0.097±0.012
  ΔlogRA cAMP hKOR: -0.19±0.020
[16]
  Emax: 67 ± 3.9%
[17]
  Ki: 2.13 ± 0.3 nM

## O=C(NC1CCC2(O)C3Cc4ccc(O)c5c4C2(CCN3CC2CC2)C1O5)c1cccc(I)c1 (centres unmarked) [IBNtxA]
[7]; EC50 arrestin recruitment hDOR
  EC50: 14.1 nM
[7]
  Emax: 224 ± 5%
[7]; pEC50 arrestin recruitment hDOR, ± SEM
  EC50: 15.8 nM
[1]; [22]
  EC50: 0.013 nM
[1]
  Emax: 109 ± 1.8%
[8]
  EC50: 0.49 ± 0.12 nM
  Emax: 101 ± 3%
[9]
  EC50: 0.48 nM
  Emax: 108 ± 3.7%
[10]
  EC50: 0.22 ± 0.02 nM
  Emax: 102 ± 4%
[21]
  EC50: 11300 nM
[21]; HEK-293T, read-out: Emax% arrestin recruitment (BRET) mMOR
  Emax: 75%
[11]
  EC50: 5.86 nM
  Emax: 29 ± 0.02%
[12]; EC50 cAMP inhibition hDOR
  EC50: 0.43 nM
[12]
  Emax: 106 ± 1%
[12]; pEC50 cAMP inhibition hDOR, ± SEM
  EC50: 0.501 nM
[18]
  Emax: 133 ± 7.3%
[13]
  Bias factor (cAMP-Tango) hMOR: 24
  Log RA cAMP hMOR: 9.99±0.081
  LogRA Tango hMOR: 7.572±0.25
  ΔlogRA Tango hMOR: -0.25±0.25
  ΔlogRA cAMP hMOR: 1.14±0.11
  ΔΔlog RA (cAMP-Tango) hMOR: 1.38±0.28
[14]
  Emax: 101 ± 2.3%
[3]; EC50 cAMP inhibition hKOR, cell printed in pM
  EC50: 2.46 pM
[3]
  Emax: 101 ± 1.79%
[19]; [24]
  EC50: 26.6 nM
[19]
  Emax: 88 ± 6.8%
[19]; pEC50 arrestin recruitment (BRET) mDOR, ± SEM
  EC50: 31.6 nM
[4]; EC50 cAMP inhibition hMOR
  EC50: 0.07 nM
[4]
  Emax: 95 ± 2%
[15]; [23]
  EC50: 0.054 nM
[15]
  Emax: 59%
[20]
  Log RA BRET-G rKOR: 10.19±0.141
  LogRA BRET-Arr rKOR: 8.846±0.266
  ΔΔlog RA (BRETG-BRETArr) rKOR: -0.218±0.388
  ΔlogRA BRET-G rKOR: 2.64±0.175
  ΔlogRA BRET-arr rKOR: 2.858±0.346
[5]
  ΔΔlog RA (cAMP-Tango) hKOR: -1.002±0.052
  Bias factor (cAMP-Tango) hKOR: 0.1
  Log RA cAMP hKOR: 11.59±0.036
  LogRA Tango hKOR: 10.89±0.010
  ΔlogRA Tango hKOR: 2.53±0.015
  ΔlogRA cAMP hKOR: 1.53±0.050
[16]
  EC50: 4.08 ± 0.67 nM
  Emax: 95 ± 2%

## O=C(N[C@@H]1CC[C@H]2[C@H]3Cc4ccc(O)c5c4[C@@]2(CCN3CC2CC2)[C@H]1O5)c1cccc(CO)c1 [MP1210, N-((4R,4aR,7R,7aR,12bS)−3-(cyclopropylmethyl)−9-hydroxy-2,3,4,4a,5,6,7,7a-octahydro-1H-4,12-methano[1]benzofuro[3,2-e]isoquinolin-7-yl)−3-(hydroxymethyl)benzamide]
[1]; [22]
  EC50: 1.16 nM
[1]
  Emax: 63 ± 3.3%
[2]
  arrestin recruitment at hMOR (in words): null arrestin recruitment
[3]; EC50 cAMP inhibition hKOR
  EC50: 25 pM
[3]
  Emax: 101 ± 1.1%
[4]
  Emax: 94.6 ± 0.98%
[4]; pEC50 cAMP inhibition hMOR
  EC50: 0.155 nM
[5]
  ΔΔlog RA (cAMP-Tango) hKOR: -0.28±0.19
  Log RA cAMP hKOR: 10.59±0.06
  LogRA Tango hKOR: 8.576±0.156
  ΔlogRA Tango hKOR: 0.48±0.18
  ΔlogRA cAMP hKOR: 0.2±0.081
